In patent US11161819B2, “Substituted tetrahydroisoquinoline compounds useful as GPR120 agonists” (Merck Sharp & Dohme Corp., priority 2016, dated 2021):

Target: T1, human GPR120 (Homo sapiens, UniProt Q5NUL3)
T1 construct: expressed in transfected cells
T1 sequence (Q5NUL3 1-361): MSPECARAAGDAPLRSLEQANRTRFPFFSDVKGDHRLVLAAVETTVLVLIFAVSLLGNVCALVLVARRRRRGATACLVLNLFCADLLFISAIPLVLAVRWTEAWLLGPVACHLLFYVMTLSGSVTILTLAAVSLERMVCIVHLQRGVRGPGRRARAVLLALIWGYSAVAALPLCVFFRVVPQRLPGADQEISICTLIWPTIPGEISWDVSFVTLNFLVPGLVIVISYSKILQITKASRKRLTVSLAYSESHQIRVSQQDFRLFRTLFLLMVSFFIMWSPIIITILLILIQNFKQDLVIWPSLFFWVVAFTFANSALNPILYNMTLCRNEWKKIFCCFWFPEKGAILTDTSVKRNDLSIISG
Test: Human GPR120 IP1 Assay (inositol phosphate turnover, CisBio IP-One kit)
Type: cell-based
Settings: IP1 accumulation in CHO-K1 cells stably expressing the short form of human GPR120; 60 min compound incubation; 4-parameter fit; read-out: hGPR120 EC50
How it was run: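 CHO-K1 cells stably expressing short-form human GPR120 were stimulated with compounds for 60 minutes at 37 degrees in stimulation buffer. IP1 accumulation measured by HTRF competitive immunoassay (665/620 nm ratio) against an IP1 standard curve, normalized to a reference compound; EC50 from 4-parameter fit.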

SMILES | EC50
CO[C@H]1C[C@H](Oc2cc(F)c(F)c(N3CCc4cc([C@@H]5C[C@H]5C(=O)O)ccc4C3)c2)C1 [Example 99, (1R,2R)-2-(2-{2,3-difluoro-5-[(trans-3-methoxycyclobutyl)oxy]phenyl}-1,2,3,4-tetrahydro-isoquinolin-6-yl)-cyclopropanecarboxylic acid] | 127 nM
O=C(O)CCc1ccc2c(c1Cl)CCN(c1cc(OC(F)(F)F)ccc1F)C2 [Example 72, 3-{5-chloro-2-[2-fluoro-5-(trifluoromethoxy)phenyl]-1,2,3,4-tetrahydroiso-quinolin-6-yl}propanoic acid] | 1170 nM
O=C(O)[C@@H]1C[C@H]1c1ccc2c(c1F)CCN(c1cc(OC3CCC3)cc(Cl)c1F)C2 [Example 123, (1R,2R)-2-{2-[3-chloro-5-(cyclobutyloxy)-2-fluorophenyl]-5-fluoro-1,2,3,4-tetrahydroisoquinolin-6-yl}cyclopropane-carboxylic acid] | 766 nM
O=C(O)CCc1ccc2c(c1F)CCN(c1cc(OC(F)(F)F)ccc1F)C2 [Example 80, 3-{5-fluoro-2-[2-fluoro-5-(trifluoromethoxy)phenyl]-1,2,3,4-tetrahydro-isoquinolin-6-yl}propanoic acid] | 3120 nM
N#Cc1c(Cl)cc(OC2CCC2)cc1N1CCc2c(ccc(CCC(=O)O)c2F)C1 [Example 150, 3-{2-[3-chloro-2-cyano-5-(cyclobutyloxy)phenyl]-5-fluoro-1,2,3,4-tetrahydroisoquinolin-6-yl} propanoic acid] | 16 nM
O=C(O)[C@@H]1C[C@H]1c1ccc2c(c1)CCN(c1cc(OC3CCC3)cc(F)c1F)C2 [Example 85, (1R,2R)-2-{2-[5-(cyclobutyloxy)-2,3-difluorophenyl]-1,2,3,4-tetra-hydroisoquinolin-6-yl}cyclo-propane-carboxylic acid] | 40 nM
CO[C@H]1C[C@H](Oc2cc(F)c(F)c(N3CCc4c(ccc([C@H]5C[C@@H]5C(=O)O)c4F)C3)c2)C1 [Example 106, (1 S,2S)-2-(2-(2,3-difluoro-5-((1 r,3S)-3-methoxycyclobutoxy)phenyl)-5-fluoro-1,2,3,4-tetra-hydroisoquinolin-6-yl)cyclopropanecarboxylic acid] | 83 nM

Results, then the molecule that gave them:

EC50 | SMILES
312 nM | Cc1ccc(-n2nc(C)c(C#N)c2N2CCc3cc(C(C)CCCC(=O)O)ccc3C2)cc1 (single isomer, unassigned) [Example 142, 5-{2-[4-cyano-3-methyl-1-(4-methylphenyl)-1H-pyrazol-5-yl]-1,2,3,4-tetra-hydroisoquinolin-6-yl}hexanoic acid]
91 nM | Cc1ccc(-n2nc(C)c(F)c2N2CCc3cc(CCC(=O)O)ccc3C2)cc1 [Example 47, 3-{2-[4-fluoro-3-methyl-1-(4-methylphenyl)-1H-pyrazol-5-yl]-1,2,3,4-tetrahydroisoquinolin-6-yl} propanoic acid]
2360 nM | N#Cc1c(F)cc(OC(F)(F)F)cc1N1CCc2cc(CCC(=O)O)ccc2C1 [Example 44, 3-{2-[2-cyano-3-fluoro-5-(trifluoro-methoxy)phenyl]-1,2,3,4-tetra-hydroisoquinolin-6-yl}propanoic acid]
312 nM | O=C(O)CCc1ccc2c(c1)CCN(c1cc(Oc3ccc(F)cn3)cc(C(F)F)c1F)C2 [Example 35, 3-(2-{3-(difluoromethyl)-2-fluoro-5-[(5-fluoropyridin-2-yl)oxy]phenyl}-1,2,3,4-tetrahydroisoquinolin-6-yl) propanoic acid]
184 nM | CO[C@H]1C[C@H](Oc2cc(C#N)c(F)c(N3CCc4cc(CCC(=O)O)ccc4C3)c2)C1 [Example 34, 3-(2-{3-cyano-2-fluoro-5-[(trans-3-methoxycyclobutyl)oxy]phenyl}-1,2,3,4-tetrahydroisoquinolin-6-yl)propanoic acid]
93 nM | Cc1ccc(-n2nc(C)c(Cl)c2N2CCc3cc(CCCCC(=O)O)ccc3C2)cc1 [Example 137, 5-{2-[4-chloro-3-methyl-1-(4-methylphenyl)-1H-pyrazol-5-yl]-1,2,3,4-tetrahydroisoquinolin-6-yl} pentanoic acid]
